How the values were obtained:
HCV genotype 1b replicon = HCV genotype 1b replicon assay (Renilla luciferase readout); assay type: cell-based, hepatitis C virus; settings: Hepatitis C virus, read-out: Genotype 1b
Summary of the method: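 Reported as pEC50 derived from a 4-parameter fit of Renilla luciferase activity against concentration. Replicon cells (APC144, Huh7 background) were exposed to compound for 48 h in G418-free medium with final 0.5% DMSO, after seeding at 10,000 cells/well and 4 h adherence.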

HCV genotype 1a replicon = HCV genotype 1a replicon assay (NS3 protease activity readout); assay type: cell-based, hepatitis C virus; settings: Hepatitis C virus, read-out: Genotype 1a, HCV genotype 1a replicon
Summary of the method: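 EC50 values came from a 4-parameter robust fit of fluorescence (ex 340, em 509 nm) produced by NS3-specific protease in lysates, assayed with 15 μM FRET substrate for 20 min at 37° C, after 48 or 72 hours of compound exposure (0.5% DMSO) of Huh7.5-derived APC89 genotype 1a replicon cells.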

[1] = system: HCV genotype 1a Y93H resistant mutant replicon; test: Replicon assay against resistant mutant 1a Y93H (transient transfection); assay type: cell-based; settings: Hepatitis C virus, read-out: Genotype 1a Y93H
Experimental: Assay 3: Replicon Assays Against Resistant Mutants […]
Potencies of test compounds against additional mutations of interest were determined using transient transfection assays. These mutants included genotype 1a Y93C, Y93H, M28T, Q30E, Q30K, L31M, and Y93N. The mutation was first introduced into the parental plasmid by site-directed mutagenesis. The replicon plasmid was then linearized and in vitro transcribed to RNA. The RNA was used to transiently transfect Huh-LUNET cells (obtained from ReBLikon GmbH, Schriesheim, Germany) by electroporation, and the potencies of test compounds against the mutants were determined as previously described.

[2] = system: HCV genotype 2a (J6 strain) NS5A chimeric replicon; test: Replicon assay against NS5A sequence of genotype 2a (J6 strain), intergenotypic chimera; assay type: cell-based; settings: Hepatitis C virus, read-out: Genotype 2a (J6)
Experimental: (§1) Assay 4: Replicon Assays Against NS5A Sequences of Other Genotypes
(§2) Potencies of test compounds against NS5A sequences of other genotypes were determined by creating intergenotypic chimeras. The entire NS5A gene from genotypes 2a, 2b, 3a, 4a, 5a, and 6a, or the nucleotide sequence encoding amino acids 11-118 of NS5A, was subcloned into a genotype 1b replicon. For genotype 2a, intergenotypic chimeras with both the JFH and the J6 strain were created. […] Since the majority of genotype 2a sequences in public databases contain the L31M sequence variant, the use of the J6 genotype 2a sequence may better reflect the antiviral potency of NS5A inhibitors.
(§3) These chimeric replicon plasmids were then linearized and in vitro transcribed to RNA. The RNA was used to transiently or stably transfect Huh-LUNET cells by electroporation, and the potencies of test compounds against the chimeras were determined as previously described.

[3] = system: HCV genotype 3a NS5A chimeric replicon; test: Replicon assay against NS5A sequence of genotype 3a, intergenotypic chimera; assay type: cell-based; settings: Hepatitis C virus, read-out: Genotype 3a
Experimental: as §1, §2, §3

| Compound | EC50 (HCV genotype 1b replicon) [nM] | EC50 (HCV genotype 1a replicon) [nM] | EC50 [1] [nM] | EC50 [2] [nM] | EC50 [3] [nM] |
| --- | --- | --- | --- | --- | --- |
| COC(=O)N[C@H](C(=O)N1C[C@@H](OC)C[C@H]1c1nc(-c2ccc(-c3cc(Cl)c(NC(=O)c4ccc(N5CCN(C(=O)C(C)(C)CO)C[C@H]5C)nc4)cc3OC(F)(F)F)cc2)c[nH]1)C1CCOCC1 [Example 16, [(S)-2-((2S,4S)-2-{4-[5′-Chloro-4′-({6-[(R)-4-(3-hydroxy-2,2-dimethyl-propionyl)-2-methyl-piperazin-1-yl]-pyridine-3-carbonyl}-amino)-2′-trifluoromethoxy-biphenyl-4-yl]-1H-imidazol-2-yl}-4-methoxy-pyrrolidin-1-yl)-2-oxo-1-(tetrahydro-pyran-4-yl)-ethyl]-carbamic acid methyl ester] | < 0.1 | < 0.1 | 1 to 10 | 1 to 10 | 1 to 10 |
| COC(=O)N[C@H](C(=O)N1C[C@@H](C)C[C@H]1c1nc(-c2ccc(-c3cc(Cl)c(NC(=O)c4ccc(N5CCN(C(=O)C(C)(C)C)C[C@H]5C)nc4)cc3OC(F)(F)F)cc2)c[nH]1)C(C)C [Example 10, [(S)-1-((2S,4S)-2-{4-[5′-Chloro-4′-({6-[(R)-4-(2,2-dimethyl-propionyl)-2-methyl-piperazin-1-yl]-pyridine-3-carbonyl}-amino)-2′-trifluoromethoxy-biphenyl-4-yl]-1H-imidazol-2-yl}-4-methyl-pyrrolidine-1-carbonyl)-2-methyl-propyl]-carbamic acid methyl ester] | < 0.1 | < 0.1 | 1 to 10 | 1 to 10 | 1 to 10 |
| COC(=O)N[C@H](C(=O)N1C[C@@H](C)C[C@H]1c1nc(-c2ccc(-c3cc(Cl)c(C(=O)Nc4ccc(N5CCN(C(=O)C(C)(C)C)C[C@H]5C)nc4)cc3OC(F)(F)F)cc2)c[nH]1)C1CCOCC1 [Example 19, Methyl ((S)-2-((2S,4S)-2-(4-(5′-chloro-4′-((6-((R)-2-methyl-4-pivaloylpiperazin-1-yl)pyridin-3-yl)carbamoyl)-2′-(trifluoromethoxy)-[1,1′-biphenyl]-4-yl)-1H-imidazol-2-yl)-4-methylpyrrolidin-1-yl)-2-oxo-1-(tetrahydro-2H-pyran-4-yl)ethyl)carbamate] | < 0.1 | < 0.1 | 10 to 1000 | 1 to 10 | 1 to 10 |
| COC(=O)N[C@H](C(=O)N1C[C@@H](C)C[C@H]1c1nc(-c2ccc(-c3cc(Cl)c(NC(=O)c4ccc(N5CCN(C(=O)C(C)(C)C)C[C@H]5C)nc4)cc3OC(F)(F)F)cc2)c[nH]1)C1CCOCC1 [Example 14] | < 0.1 | < 0.1 | 1 to 10 | 0.1 to 1 | 0.1 to 1 |
| COC(=O)N[C@H](C(=O)N1C[C@@H](C)C[C@H]1c1nc(-c2ccc(-c3ccc(C(=O)Nc4ccc(N5CCN(C(=O)C(C)(C)C)C[C@H]5C)nc4)cc3OC(F)(F)F)cc2)c(Cl)[nH]1)C(C)C [Example 12, ((S)-1-{(2S,4S)-2-[5-Chloro-4-(4′-{6-[(R)-4-(2,2-dimethyl-propionyl)-2-methyl-piperazin-1-yl]-pyridin-3-ylcarbamoyl}-2′-trifluoromethoxy-biphenyl-4-yl)-1H-imidazol-2-yl]-4-methyl-pyrrolidine-1-carbonyl}-2-methyl-propyl)-carbamic acid methyl ester] | < 0.1 | < 0.1 | 1 to 10 | 1 to 10 | 1 to 10 |
| COC(=O)N[C@H](C(=O)N1C[C@@H](OC)C[C@H]1c1nc(-c2ccc(-c3cc(Cl)c(NC(=O)c4ccc(N5CCN(C(=O)C(C)(C)C)C[C@H]5C)nc4)cc3OC(F)(F)F)cc2)c[nH]1)C1CCOCC1 [Example 15] | < 0.1 | < 0.1 | 1 to 10 | 0.1 to 1 | 0.1 to 1 |
| COC(=O)N[C@H](C(=O)N1C[C@@H](OC)C[C@H]1c1nc(-c2ccc(-c3cc(Cl)c(NC(=O)c4ccc(N5CCN(C(=O)C(C)(C)C)C[C@H]5C)nc4)cc3OC(F)(F)F)cc2)c[nH]1)C(C)C [Example 13] | < 0.1 | < 0.1 | 1 to 10 | 0.1 to 1 | 0.1 to 1 |
| CNC(=O)N1C[C@@H](C)N(c2ccc(C(=O)Nc3cc(OC(F)(F)F)c(-c4ccc(-c5c[nH]c([C@@H]6C[C@H](C)CN6C(=O)[C@@H](NC(=O)OC)C(C)C)n5)cc4)cc3Cl)cn2)C[C@@H]1C [Example 1, ((S)-1-{(2S,4S)-2-[4-(5′-Chloro-4′-{[6-((2R,5S)-2,5-dimethyl-4-methylcarbamoyl-piperazin-1-yl)-pyridine-3-carbonyl]-amino}-2′-trifluoromethoxy-biphenyl-4-yl)-1H-imidazol-2-yl]-4-methyl-pyrrolidine-1-carbonyl}-2-methyl-propyl)-carbamic acid methyl ester] | < 0.1 | < 0.1 | 10 to 1000 | 10 to 1000 | 10 to 1000 |
